For eight compounds, Activity results are on record in ChEMBL document CHEMBL3817770, “Design and synthesis of 5-aminolaevulinic acid/3-hydroxypyridinone conjugates for photodynamic therapy: enhancement of protoporphyrin IX production and photo-toxicity in tumor cells” (Medchemcomm, 2016).

A short description of series [1]: Phototoxicity in human BPH1 cells assessed as cell survival at 200 uM incubated for 4 hrs followed by irradiation with blue light for 5 mins by MTT assay. It counts as cell-based, BPH-1. Particulars: bph-1, 4 h, 200 µM. A general note: Formazan colour is commonly taken as a measure of viable cells.
The subject of series [2] is A549. Kind of series: Phototoxicity in human A549 cells assessed as cell survival at 100 uM incubated for 4 hrs followed by irradiation with blue light for 5 mins by MTT assay. The series is classed as functional.
Series [3] concerns LNCaP. Kind of series: Increase in protoporphyrin 9 levels in human LNCAP cells at 100 uM after 24 hrs by fluorescence spectrometer plate reader method relative to ALA. The series is classed as functional.
Series [4] has as its system KB. Kind of series: Increase in protoporphyrin 9 levels in human KB cells at 200 uM after 3 to 24 hrs by fluorescence spectrometer plate reader method. It counts as functional, cell-based.
Series [5] relates to LNCaP. As to the kind of experiment: Dark toxicity in human LNCAP cells at 200 uM after 4 hrs by MTT assay. The series is classed as cell-based.
The test system of series [6] is A549. As to the kind of experiment: Increase in protoporphyrin 9 levels in human A549 cells at 200 uM after 3 to 24 hrs by fluorescence spectrometer plate reader method. The series is classed as functional, cell-based.
The test system of series [7] is KB. Kind of series: Increase in protoporphyrin 9 levels in human KB cells at 100 uM after 24 hrs by fluorescence spectrometer plate reader method relative to ALA. The series is classed as functional.
The test system of series [8] is MCF7. As to the kind of experiment: Dark toxicity in human MCF7 cells at 200 uM after 4 hrs by MTT assay. It counts as cell-based. Particulars: mcf7, 4 h.
The test system of series [9] is A549. As to the kind of experiment: Increase in protoporphyrin 9 levels in human A549 cells at 100 uM after 24 hrs by fluorescence spectrometer plate reader method relative to ALA. It counts as functional.
The subject of series [10] is A549. As to the kind of experiment: Phototoxicity in human A549 cells assessed as cell survival at 200 uM incubated for 4 hrs followed by irradiation with blue light for 5 mins by MTT assay. It counts as functional.
Series [11] is described as follows: Dark toxicity in human BPH1 cells at 200 uM after 4 hrs by MTT assay. The series is classed as cell-based. Particulars: bph-1, 4 h.
Series [12] relates to KB. As to the kind of experiment: Phototoxicity in human KB cells assessed as cell survival at 200 uM incubated for 4 hrs followed by irradiation with blue light for 5 mins by MTT assay. It counts as functional.
In series [13] the test system is LNCaP. As to the kind of experiment: Increase in protoporphyrin 9 levels in human LNCAP cells at 200 uM after 3 to 24 hrs by fluorescence spectrometer plate reader method. It counts as functional, cell-based.
Series [14] has as its system MCF7. As to the kind of experiment: Phototoxicity in human MCF7 cells assessed as cell survival at 100 uM incubated for 4 hrs followed by irradiation with blue light for 5 mins by MTT assay. It counts as functional.
Series [15] can be described thus: Increase in protoporphyrin 9 levels in human BPH1 cells at 100 uM after 24 hrs by fluorescence spectrometer plate reader method relative to ALA. It counts as ADME, cell-based. Particulars: bph-1, 24 h.
Series [16] can be described thus: Increase in protoporphyrin 9 levels in human BPH1 cells at 200 uM after 3 to 24 hrs by fluorescence spectrometer plate reader method. It counts as ADME, cell-based. Particulars: bph-1, 200 µM.
Series [17] has as its system LNCaP. As to the kind of experiment: Phototoxicity in human LNCAP cells assessed as cell survival at 100 uM incubated for 4 hrs followed by irradiation with blue light for 5 mins by MTT assay. It counts as functional.
Series [18] has as its system LNCaP. As to the kind of experiment: Phototoxicity in human LNCAP cells assessed as cell survival at 200 uM incubated for 4 hrs followed by irradiation with blue light for 5 mins by MTT assay. It counts as functional.
Series [19] has as its system A549. Kind of series: Dark toxicity in human A549 cells at 200 uM after 4 hrs by MTT assay. The series is classed as cell-based. Particulars: a549, 4 h.

The source made the active and inactive calls. No cut-off for these calls is given here.

On to `CCCCn1ccc(=O)c(O)c1C(=O)N[C@@H](CC(C)C)C(=O)NCC(=O)CCC(=O)OC`, for which the Activity entry (in [1]; with LNCaP [5]; with MCF7 [8]; in series [11]; in series [15]; in series [16]) was “Non-toxic” throughout. Also, the Activity entry in the series on A549 [19] is “Non-toxic”. Moreover, the outcome in the series on A549 [2], in the series on LNCaP [3], with KB [4], with A549 [6], in the series with KB [7] and in the series with A549 [9] was inactive. The result in the series with A549 [10], in the series on KB [12], with LNCaP [13], in the series on MCF7 [14], in the series on LNCaP [17] and with LNCaP [18] was inactive.
With `CCCCn1ccc(=O)c(O)c1C(=O)N[C@@H](Cc1ccccc1)C(=O)NCC(=O)CCC(=O)OC`, the Activity result (in series [1]; with LNCaP [5]; in the series on MCF7 [8]; in series [11]; in series [15]; in series [16]) was “Non-toxic” in each case. For the same compound, the Activity result in the series on A549 [19] is “Non-toxic”. Further, the outcome with A549 [2], in the series on LNCaP [3], in the series with KB [4], in the series with A549 [6], in the series on KB [7] and with A549 [9] was inactive. For the same compound, the outcome in the series with A549 [10], in the series with KB [12], with LNCaP [13], with MCF7 [14], with LNCaP [17] and in the series with LNCaP [18] was inactive.
Regarding `COCCn1ccc(=O)c(O)c1C(=O)N[C@@H](Cc1ccccc1)C(=O)NCC(=O)CCC(=O)OC`, the Activity result (in [1]; in the series on LNCaP [5]; in the series on MCF7 [8]; in series [11]; in series [15]; in [16]) was “Non-toxic” in each case. Also, the Activity result with A549 [19] was “Non-toxic”. Further, the result with A549 [2], in the series on LNCaP [3], in the series with KB [4], in the series with A549 [6], in the series with KB [7] and in the series with A549 [9] was inactive. The outcome in the series on A549 [10], in the series with KB [12], in the series with LNCaP [13], in the series with MCF7 [14], in the series with LNCaP [17] and in the series on LNCaP [18] was inactive.
Regarding `CCCCCCn1ccc(=O)c(O)c1C(=O)N[C@@H](Cc1ccccc1)C(=O)NCC(=O)CCC(=O)OC`, the Activity result (in [1]; in the series on LNCaP [5]; with MCF7 [8]; in series [11]; in series [15]; in series [16]) was “Non-toxic” in each case. Besides, the Activity entry with A549 [19] was “Non-toxic”. The outcome with A549 [2], with LNCaP [3], in the series on KB [4], in the series on A549 [6], in the series with KB [7] and in the series with A549 [9] was inactive. Also, the result in the series with A549 [10], with KB [12], with LNCaP [13], in the series with MCF7 [14], in the series on LNCaP [17] and with LNCaP [18] was inactive.
With `CCn1ccc(=O)c(O)c1C(=O)N[C@@H](CC(C)C)C(=O)NCC(=O)CCC(=O)OC`, the Activity entry (in series [1]; with LNCaP [5]; with MCF7 [8]; in series [11]; in [15]; in series [16]) was “Non-toxic” in each case. Also, the Activity entry in the series with A549 [19] is reported as “Non-toxic”. Moreover, the outcome in the series on A549 [2], in the series with LNCaP [3], with KB [4], in the series on A549 [6], with KB [7] and with A549 [9] was inactive. Further, the result in the series on A549 [10], in the series on KB [12], with LNCaP [13], with MCF7 [14], with LNCaP [17] and in the series on LNCaP [18] was inactive.
Turning to `COC(=O)CCC(=O)CNC(=O)[C@H](CC(C)C)NC(=O)c1c(O)c(=O)ccn1C`, the Activity result (in series [1]; in the series with LNCaP [5]; in the series with MCF7 [8]; in series [11]; in series [15]; in series [16]) was “Non-toxic” in each case. In the series on A549 [19], the Activity entry was “Non-toxic”. The result in the series with A549 [2], with LNCaP [3], with KB [4], with A549 [6], with KB [7] and in the series on A549 [9] was inactive. The outcome with A549 [10], with KB [12], with LNCaP [13], in the series on MCF7 [14], in the series on LNCaP [17] and in the series with LNCaP [18] was inactive.
Take `CCCCCCn1ccc(=O)c(O)c1C(=O)N[C@@H](CC(C)C)C(=O)NCC(=O)CCC(=O)OC`: the Activity result (in [1]; with LNCaP [5]; in the series on MCF7 [8]; in [11]; in series [15]; in [16]) was “Non-toxic” in each case. Besides, the Activity result in the series with A549 [19] was “Non-toxic”. For the same compound, the result in the series on A549 [2], in the series on LNCaP [3], in the series on KB [4], in the series with A549 [6], in the series on KB [7] and in the series with A549 [9] was inactive. In addition, the result in the series with A549 [10], in the series on KB [12], in the series on LNCaP [13], with MCF7 [14], with LNCaP [17] and in the series on LNCaP [18] was inactive.
On to `CCn1ccc(=O)c(O)c1C(=O)N[C@@H](Cc1ccccc1)C(=O)NCC(=O)CCC(=O)OC`, for which the Activity entry (in [1]; with LNCaP [5]; in the series with MCF7 [8]; in series [11]; in [15]; in series [16]) was “Non-toxic” each time. In addition, the Activity result in the series with A549 [19] is “Non-toxic”. Moreover, the result with A549 [2], with LNCaP [3], in the series on KB [4], in the series on A549 [6], in the series with KB [7] and with A549 [9] was inactive. Also, the outcome in the series with A549 [10], in the series on KB [12], with LNCaP [13], in the series on MCF7 [14], with LNCaP [17] and with LNCaP [18] was inactive.
